Assay results reported in patent US8629242B2, “Methods of inhibiting calcineurin with ApoE analogs” (Cognosci, Inc., priority 2007, dated 2014).
Where a SMILES comes first, the peptide text is derived from it. [ ]: non-standard residue; d: D form. Aib = CC(C)(N)C(=O)O

Key:
[1] = test system: peritoneal macrophages; assay: In vitro LPS+IFN-γ challenge of macrophages from COG 133-treated EAE mice; assay type: cell-based; details: macrophages collected dpi 35 from treated mice, vs saline-treated mice, p<0.001
Method: FIG. 4. In vivo exposure to COG 133 suppressed in vitro production of inflammatory effectors by peritoneal macrophages. TNF-α (A) and IL-6 (B) were measured by ELISA, and nitrite in culture medium was measured by a Sievers NO Analyzer (C). Statistical analysis was performed by two-tailed student's t test and significance was shown as ** (p<0.01) and *** (p<0.001).
To examine the effect of COG 133 (SEQ ID NO: 1) treatment on activation of macrophages in EAE mice, macrophages were collected from a subset of saline and COG 133-treated mice on dpi 35 and then challenged in vitro with the immune stimulators lipopolysaccharide and interferon-γ (LPS+IFN-γ). Nitrite in culture medium was measured by a Sievers NO Analyzer and TNF-α and IL-6 were measured by ELISA.

[2] = test system: macrophage cell line U937; assay: Superoxide release in PMA+LPS-treated U937 macrophages; assay type: cell-based, human; details: 10 μM, IFN-γ-differentiated cells
Method: FIG. 16. ApoE analogs suppress the release of nitric oxide (A) and TNF-α (B) in LPS-treated BV2 microglia cells. Series concentrations of ApoE analogs were added to culture medium together with LPS (10 ng/ml). 24 hours later, culture medium was collected for measurement of NO by Griess assay or TNF-α by ELISA. (C) ApoE analogs inhibit superoxide formation in PMA+LPS-treated human macrophage cell line U937. ApoE analogs (10 μM) were added to the cell medium of human macrophage U937 5 minutes prior to PMA+LPS treatment. The release of superoxide in culture medium was measured by Luminol assay kit (Calbiochem).
To determine the anti-oxidant effect of the different ApoE analogs, the human macrophage cell line U937 was differentiated with IFN-γ (40 U/ml) for 4 days and treated with phorbol-12-myristate-13-acetate (PMA) and LPS with or without ApoE analogs (10 μM). The release of superoxide in the medium was measured by Luminol Superoxide Assay kit (Calbiochem, CA).

[3] = test system: 175 kdyn contusive spinal cord injury; assay: Contusive spinal cord injury; assay type: in vivo, Sprague-Dawley rats; details: 1 mg/kg
Method: FIG. 12. COG 112 reduces the size of the lesion in white matter after spinal cord injury by inhibition of microglia activation. Rats received 175 kdyn contusive spinal cord injury and subsequent treatment with saline or COG 112 starting immediately after injury for 1 week. The injured area and spared white matter from the injured spinal cord were evaluated and quantified by luxol fast blue (LFB) staining area (top left panel). Activation of microglia was examined by staining adjacent sections with an ED1 antibody (bottom left panel). […] Scale bar=1000 μm. Similar to MS, spinal cord injury (SCI) is another devastating neurological disorder manifested as massive demyelination in the white matter of the spinal cord and extensive microglial activation surrounding the injured site. To examine the therapeutic effect of ApoE analogs on spinal cord injury, COG 112 (SEQ ID NO: 5) was administered to rats immediately after a contusive spinal cord injury. […] The second dose of COG 112 or vehicle was given i.v. 5 hours later followed by daily i.p. doses for 7 days. The animals were sacrificed on day 7 and the spinal cord spanning the injured site was subjected to histological examination. The injured area and spared white matter of the spinal cord were evaluated by Luxol Fast blue (LFB) staining. Activation of microglia was examined by staining adjacent sections with an antibody to ED1. […] Most impressively, about 50% of spared tissue remained at the epicenter of COG 112-treated animals, while only 15% remained in control animals. […] The microglia surrounding the injured spinal cord were robustly activated as shown by ED1-immunoreactivity 7 days after contusion (FIG. 12, bottom panels).

[4] = test system: cuprizone-induced demyelination in corpus callosum; assay: Cuprizone-induced demyelination model; assay type: in vivo, C57BL/6J male mice
Method: FIG. 6. COG 112 promotes remyelination of the corpus callosum in a cuprizone model of demyelination. C57BL/6J male mice were fed with 0.2% cuprizone-containing diet for 5 weeks to induce complete demyelination in the corpus callosum. Starting from week 6, cuprizone was removed and the animals were treated with either vehicle or COG 112 (1 mg/kg) by i.p. injection three times a week for 4 weeks. Myelination in corpus callosum was evaluated on a scale from 0 to 3 after staining brain sections with Luxol Fast Blue (LFB). The data were collected from 4 animals of each group and 2 sections from each animal. A non-parametric Mann-Whitney test was used to compare differences between groups. Panels A and B (100×) are representative pictures of LFB-stained sections from vehicle- and COG 112-treated animals, respectively. Panels C and D (400×) are representative sections labeled with anti-GST-π-FITC antibody (marker for mature oligodendrocytes) from vehicle- and COG 112-treated animals, respectively.
In an EAE model, treatment with COG 112 reduced demyelination in the spinal cord (Example 1). Therefore, we tested the effect of COG peptides on remyelination in a cuprizone-induced demyelination model. C57BL/6J male mice were fed with 0.2% cuprizone-containing mouse chow for 5 weeks to cause demyelination. […]

[5] = test system: enriched OPCs; assay: OPC proliferation (BrdU) in enriched OPC culture; assay type: cell-based, rat; details: 1 μM, three days in proliferation medium
Method: FIG. 10. ApoE analog promotes proliferation of OPCs in culture. Cultures enriched in OPCs were grown in proliferation media containing BrdU in the presence and absence of 1 μM COG 112 or a peptide control. Cells were subsequently labeled with Hoescht stain to detect nuclei, a BrdU antibody to detect proliferating cells, and an A2B5 antibody to identify OPCs (left panel). The number of cells per field were counted for each condition (right panel). In graph, the Hoescht bars correspond to the total number of A2B5^+/Hoescht^+ cells, while the BrdU bars correspond to […] cells.
Enriched OPCs were collected by shaking a primary culture of P2 rat pup brain. Proliferation medium containing COG 112 (1 μM), BrdU (20 μM), 10 ng/mL FGF and PDGF was added to the enriched OPC cultures. After three days in culture, cells were stained with Hoescht stain to show nuclei, a BrdU antibody to identify proliferating cells, and an A2B5 antibody to identify OPCs (FIG. 10). Antennapedia, the prefix peptide of COG 112, was used as a control.

Row | Compound | release of IL-6 [1] | release of NO [1] | release of TNF-α [1] | superoxide release [2] | ED1 immunoreactive area in the injured spinal cord (microglia activation) ([3]; 7 days after contusion) | spared tissue remaining at the epicenter ([3]; day 7, control animals 15%) | percentage of spared white matter to total spinal cord area ([3]; day 7, epicenter to 2.4 mm rostral or caudal, vs saline) | LFB staining of myelin within corpus callosum ([4]; 1 mg/kg i.p. three times a week for 4 weeks after 5 weeks cuprizone) | GST-π+ cells (mature oligodendrocytes) within the corpus callosum ([4]; 1 mg/kg i.p. three times a week for 4 weeks, vs vehicle) | number of A2B5+/BrdU+ cells [5]
1 | CC(=O)N[C@@H](CC(C)C)C(=O)N[C@@H](CCCNC(=N)N)C(=O)N[C@H](C(=O)N[C@@H](CCCNC(=N)N)C(=O)N[C@@H](CC(C)C)C(=O)N[C@@H](C)C(=O)N[C@@H](CO)C(=O)N[C@@H](Cc1c[nH]cn1)C(=O)N[C@@H](CC(C)C)C(=O)N[C@@H](CCCNC(=N)N)C(=O)N[C@@H](CCCCN)C(=O)N[C@@H](CC(C)C)C(=O)N[C@@H](CCCNC(=N)N)C(=O)N[C@@H](CCCCN)C(=O)N[C@@H](CCCNC(=N)N)C(=O)N[C@@H](CC(C)C)C(=O)N[C@@H](CC(C)C)C(N)=O)C(C)C [COG 133] | significantly lower response | significantly lower levels of NO | significantly lower response |  |  |  |  |  |  | 
2 | Ac-RQIKIWFQNRRMKWKKCLRVRLASHLRKLRKRLL-NH2 [COG 112] |  |  |  | significantly inhibited superoxide release | dramatically decreased | about 50% | significantly higher | significantly increased | Significantly more | significantly increased
3 | CC(=O)NC(=N)NCCC[C@H](NC(=O)[C@H](CCCCN)NC(=O)[C@H](CCCNC(=N)N)NC(=O)[C@H](CC(C)C)NC(=O)[C@H](CCCCN)NC(=O)[C@H](CCCNC(=N)N)NC(=O)[C@H](CC(C)C)NC(=O)C(C)(C)NC(=O)[C@H](CO)NC(=O)[C@H](C)NC(=O)[C@H](CC(C)C)NC(=O)[C@H](CCCNC(=N)N)NC(=O)[C@@H](NC(=O)[C@H](CCCNC(=N)N)NC(=O)[C@H](CC(C)C)NC(C)=O)C(C)C)C(=O)N[C@@H](CC(C)C)C(=O)N[C@@H](CC(C)C)C(N)=O [COG 345, acetyl-LRVRLAS-Aib-LRKLRK(acetyl-Arg)LL-amide] (Ac-LRVRLAS[Aib]LRKLRKR(Ac)LL-NH2) |  |  |  | significantly inhibited superoxide release |  |  |  |  |  | 
